Measured values: patent US5468773A, “Methods for inhibiting bone loss and cartilage degradation using wortmannin and its analogs” (Eli Lilly and Company, priority 1994, dated 1995)
Like-named read-outs stand apart in the source and are kept apart here. Ends that are not written are not given here.

Legend:
[1] = system: hen osteoclasts; test: inhibition of in vitro bone resorption activity of hen osteoclasts; type: cell-based; details: for percent of control bone resorption: mean ± SE, n=3-6
Description: (§1) Control resorption in Table 2b corresponded to 12-62 Howship's lacunae per bone slice (n=4-4. mean ±SE).
As summarized in Table 3, the various analogs inhibited the resorption of hen osteoclasts with IIIA IC50=10 nM; IIIb, IC50=100 nM; and Ib, IC50=500 nM. Data presented are percent of control bone resorption (n=3-6, mean ±SE). Control levels of resorption varied from 26-49 mg bone resorbed between days 4-6 in culture.

[2] = system: osteoclastic bone resorption; test: serum calcium in a rat model of secondary hyperparathyroidism (calcium deficient diet), 6 hr infusion; type: in vivo, Sprague Dawley rats; details: T=0 control 12 mg/dl, P<0.05
Text: Compounds were also examined in a rat model of secondary hyperparathyroidism according to similars method as set out in Thomas et al., Bone and Mineral, 4, pp. 73-82 (1988) in an effort to examine the ability of these compounds to inhibit osteoclastic bone resorption in vivo. Serum calcium levels (mg/dl) were previously shown to be dependant on bone resorption in Sprague Dawley rats (400 g males) maintained on a calcium deficient diet for 2 weeks. Serum calcium levels were examined colorimetrically (Sigma, St. Louis) before (T=O) and after 6 hr infusion (T=6) of compounds at a rate of 0.08 ml/hr through cannula inserted into the jugular vein of anesthesized rates. At T=0, the serum calcium of a control rat was 12 mg/dl.

[3] = system: ovariectomized rats; test: bone mineral density and content of left proximal tibiae in ovariectomized rats (pQCT); type: in vivo, rat; details: 5 weeks, mean ± SD, n=6; for Bone Content: Sham 14 ± 1.5, OVX 10.4 ± 1.2; for Total Bone Mineral Density: Sham 590 ± 26, OVX 494 ± 29
Text: As summarized in Table 4, IIIa was also examined in 6 month old, ovariectomized rats. The bone mineral density (mg/cm^3) and bone mineral content (mg) of the left proximal tibiae were quantitated by computer tomography with a Norland 960 pQCT after daily dosing per os for 5 weeks, similar to the methods of Griffin et al., "Dual-energy X-ray Absorptiometry of the Rat: Accuracy, Precision and Measurement of Bone Loss", J. Bone Miner. Res 8, pp. 795-800 (1993). There were five groups of rats with n=6 per group: Sham, OVX, 0.001, 0.01, and 0.1 mg of IIIa/kg per os daily. In vivo data are presented for a 2 mm slice of the left proximal tibia at 5 weeks post-ovariectomy (mean ±standard deviation).

[4] = system: rat osteoclasts; test: inhibition of in vitro bone resorption activity of rat osteoclasts (Howship's lacunae per bone slice); type: cell-based; details: Osteoclast, Table 2b, mean ± SE, read-out: % Control Bone Resorption
Text: as §1

[5] = system: post-menopausal loss of bone; details: chronic treatment, clinical data; background; cited from earlier work
[6] = system: mammalian osteoclasts; details: background; cited from earlier work
[7] = Table 3, concentration 1 × 10^-6
[8] = Table 3, concentration 1 × 10^-7
[9] = Table 3, concentration 1 × 10^-8
[10] = Table 3, concentration 1 × 10^-9
[11] = 1 mg/kg/day infused via jugular vein
[12] = Osteoclast, read-out: % Control Bone Resorption

Compound: Cc1c2c(c(O)c3occ(C(=O)O)c13)[C@@H]1CCC(=O)[C@@]1(C)C=C2 [IVa]
- percent of control bone resorption [1, 7]: 105 ± 10%
- percent of control bone resorption [1, 8]: 110 ± 13%
- percent of control bone resorption [1, 9]: 99 ± 15%
- percent of control bone resorption [1, 10]: 93 ± 14%

Compound: COC[C@H]1OC(=O)c2coc3c2[C@@]1(C)C1=C(C3=O)[C@@H]2CC[C@H](O)[C@@]2(C)C[C@H]1OC(C)=O [IIIa, 17α-Dihydrowortmannin]
- serum calcium after 6 hr of infusion [2, 11]: ~5 mg/dL
- percent of control bone resorption [1, 7]: 8 ± 1%
- percent of control bone resorption [1, 8]: 29 ± 4%
- percent of control bone resorption [1, 9]: 67 ± 5%
- percent of control bone resorption [1, 10]: 94 ± 5%
- Bone Content ([3]; 0.001 mg/kg/day per os): 13.6 ± .6 mg
- Total Bone Mineral Density ([3]; 0.001 mg/kg/day per os): 528 ± 33 mg/cm3
- Bone Content ([3]; 0.01 mg/kg/day per os): 13.5 ± 1 mg
- Total Bone Mineral Density ([3]; 0.01 mg/kg/day per os): 545 ± 26 mg/cm3
- Bone Content ([3]; 0.1 mg/kg/day per os): 11.5 ± .7 mg
- Total Bone Mineral Density ([3]; 0.1 mg/kg/day per os): 494 ± 18 mg/cm3

Compound: COC[C@H]1OC(=O)c2coc3c2[C@@]1(C)C1=C(C3=O)[C@@H]2CCC(=O)[C@@]2(C)CC1 [Ib, 11-deacetoxywortmannin]
- IC50 ([1]; Osteoclast, hen osteoclasts, analogs, Example 2, read-out: IC50, resorption of hen osteoclasts): 500 nM
- percent of control bone resorption [1, 7]: 42 ± 3%
- percent of control bone resorption [1, 8]: 90 ± 15%
- percent of control bone resorption [1, 9]: 97 ± 17%
- percent of control bone resorption [1, 10]: 106 ± 10%

Compound: COC[C@H]1OC(=O)c2coc3c2[C@@]1(C)C1=C(C3=O)[C@@H]2CC[C@H](O)[C@@]2(C)CC1 [IIIb, 11-Desacetoxy-17α-dihydrowortmannin]
- IC50 ([1]; Osteoclast, read-out: IC50, resorption of hen osteoclasts): 100 nM
- percent of control bone resorption [1, 7]: 26 ± 3%
- percent of control bone resorption [1, 8]: 50 ± 4%
- percent of control bone resorption [1, 9]: 88 ± 19%
- percent of control bone resorption [1, 10]: 124 ± 23%

Compound: COC[C@H]1OC(=O)c2coc3c2[C@@]1(C)C1=C(C3=O)[C@@H]2CCC(=O)[C@@]2(C)C[C@H]1OC(C)=O [Wortmannin, wortmannin]
- activity at 1 µM ([4]; 1 × 10^-6 M): 3 ± 3%
- activity at 0.1 µM ([4]; 1 × 10^-7 M): 30 ± 6%
- activity at 0.01 µM ([4]; 1 × 10^-8 M): 32 ± 13%
- activity at 0.001 µM ([4]; 1 × 10^-9 M): 79 ± 22%
- activity at 0.0001 µM ([4]; 1 × 10^-10 M): 93 ± 11%
- serum calcium after 6 hr of infusion [2, 11]: approximately 9 mg/dl
- activity at 0.01 µM [1, 12]: 90 ± 7%
- activity at 0.05 µM [1, 12]: 79 ± 2%
- activity at 0.1 µM [1, 12]: 58 ± 6%
- activity at 0.5 µM [1, 12]: 52 ± 3%
- activity at 1 µM [1, 12]: 54 ± 4%
- activity at 5 µM [1, 12]: 19 ± 1%
- activity at 10 µM [1, 12]: 23 ± 7%
- IC50 ([1]; Osteoclast, read-out: IC50, in vitro bone resorption activity): 300 nM

Compound: calcitonin: calcitonin has been used to treat osteoporotic patients (CGNLSTCMLGTYTQDFNKFHTFPQTAIGVGAP; ends and bridges not checked; cysteine pairing not given here; UniProt P01258 85-116, looked up)
- arrest of post-menopausal loss of bone [5]: ineffective to arrest the post-menopausal loss of bone

Compound: salmon calcitonin [reference compound]
- inhibition of resorption activity of mammalian osteoclasts [6]: directly inhibit the resorption activity of mammalian osteoclasts
- serum calcium after 6 hr of infusion ([2]; positive control, 12 ug/kg/day): 9 mg/dL
